Consider four compounds from US8871741B2, “Inhibition of TNF-α induced activation of NFKB by pentosan polysulfate” (Icahn School of Medicine at Mount Sinai, priority 2010, dated 2014).

Where two headings read alike, the source gives them in different places.

For one data set, the system named is MMP-2. The data set is described as follows: Zymography of U937 cell supernatants, MMP-2. Conditions: U937 cells, heparin 100 μg/ml. The format is cell-based, human. The protocol: Human pro-monocytic U937 cells were obtained from American Type Culture Collection (Manassas, Va.) and grown in RPMI medium supplemented with 10% FBS. U937 cells were plated in six-well plates at a density of 5×10^6 cells/ml. The cells were then stimulated with 10 ng/ml TNF-α, in the presence or absence of either increasing concentrations of PPS (10-100 μg/ml) or heparin (100 μg/ml), and incubated at 37° C. for 3 hours. Following stimulation, cells were placed in 0.1% BSA-serum-free medium for 16-18 hours. The media was then collected, centrifuged, and supernatants were stored at −80° C. for the assessment of MMP activity. The cell number was determined by direct cell counting.
MMP activity in aortic extracts and conditioned media from monocytes was assessed, as previously described (Jacot T A, et al., Lab Invest. 1996; 75:791-79). Briefly, aortic segments were homogenized and extracted in RIPA buffer (25 mM Tris, pH 7.4, 150 mM KCl, 5 mM EDTA, 1% Nonidet P-40, 0.5% sodium deoxycholate, and 0.1% SDS). Insoluble material was precipitated by centrifugation, and soluble extracts were collected and stored at −20° C. for further analysis. For in vitro experiments, cell supernatants were centrifuged to remove cellular debris, and diluted appropriately to normalize for cell number. Aortic extracts and conditioned media were then mixed with sample buffer (1% SDS, 0.08 M Tris pH 6.8, 4% glycerol, and 0.006% bromophenol blue), and loaded onto a 10% gelatin polyacrylamide gel, and processed as described (Jacot T A, et al., Lab Invest. 1996; 75:791-79). For reverse zymography, samples were loaded onto a 15% gelatin polyacrylamide gel containing 0.5% porcine gelatin and 6 μg recombinant gelatinase A, and processed as described (Elliot S J, et al., J Am Soc Nephrol. 1999; 10: 62-68).

In a further data set the test system is podocytes. The data set is described as follows: Albumin permeability of podocyte monolayers (FITC-labeled BSA flux). The format is cell-based. Conditions: 2 hours after TNFα treatment (20 ng/ml). The protocol:
1×10^5 podocytes were seeded onto collagen-coated transwell filters ([…] pore-size, Corning, N.Y., N.Y.) placed in the top chamber of each well of a 24-well plate. After cells reached confluence, some wells of cells were treated with TNFα (20 ng/ml), PPS (400 μg/ml), or PPS plus TNFα in 2% FBS medium for 8 hours. Then the medium from both the top and bottom chamber was completely removed, cells were washed twice with PBS and the top chamber was refilled with 0.2 ml 2% FBS medium supplemented with 0.5 mg/ml FITC-labeled BSA (Sigma Aldrich, St Louis, […].), while the bottom chamber was refilled with 0.6 ml 2% FBS medium supplemented with 0.5 mg/ml unlabeled BSA. At different time points, 100 μl aliquots were collected from the bottom chamber and fluorescence was measured by a fluorescence spectrophotometer (485 nm excitation, 535 nm emission). The concentration of FITC-BSA passing through the monolayer was determined by reference to a set of standard dilutions of FITC-BSA. The value of albumin flux through untreated monolayer was arbitrarily defined as 100%.

Data set [1] has as its system MCP-1, RANTES, CXCL1, MIP-2, ICAM-1, and iNOS mRNA. The data set is described as follows: TNFα induced pro-inflammatory gene expression in proximal tubular cell line, real-time PCR. Conditions: TNFα 10 ng/ml, 4 hours, control defined as 1. It counts as cell-based, mouse. The protocol:
A proximal tubular cell line obtained from mice transgenic for SV40 T antigen was grown in DMEM containing 10% FBS. For the measurement of TNFα-stimulated gene expression, 1×10^5 proximal tubular cells were transferred to each well of a 6-well-plate. After placing the cells in 0.1% FBS medium for 24 hours, 10 ng/ml of TNFα was added to test wells. Total RNA was isolated from all wells 4 hours later. MCP-1, RANTES, CXCL1, MIP-2, ICAM-1, and iNOS mRNA levels were determined by real-time PCR as described above and corrected by β-actin mRNA levels. TNFα stimulated MCP-1 and RANTES production and release into the medium was measured in TNFα (10 ng/ml) treated and control cells at 24 hours. The amount of MCP-1 or RANTES in the medium was measured by ELISA (Invitrogen Corporation (Carlsband, Calif.).
To determine the effect of PPS on TNFα induced upregulation of proinflammatory genes, proximal tubular cells were pre-treated with PPS (200 μg/ml) for 1 hour before the addition of TNFα (10 ng/ml). MCP-1, RANTES, CXCL1, MIP-2, ICAM-1, and iNOS mRNA levels were determined 4 hours later by real-time PCR. MCP-1 and RANTES production was also measured.

The subject of the next data set is proximal tubular cells. Conditions: for cell death: wild type proximal tubular cells, 24 hours. The protocol:
To determine if CHOP played a role in ER stress induced renal cell death, primary proximal tubular cells were isolated from 2 month-old CHOP^−/− and wild type mice using a method described by Sheridan et al. (Am J Physiol 1993, 265:F342-350). Briefly, kidneys were perfused with a phosphate buffer solution and dynabead M-450 (5×10^5 beads/ml, Invitrogen, LA, CA). Cortices were then cut to small pieces and incubated with 0.1% collagenase and 100 u/ml DNase at 37° C. for 40 minutes. After pressing tissues through a 100 μm cell strainer (BD Biosciences, Bedford, Mass.) with a syringe plunger, glomeruli were removed by a magnetic concentrator. The remaining tissues were collected with a 40 μm cell strainer, washed and cultured with medium containing DMEM/F12 (1:1), 5 μg/ml transferrin, 5 μg/ml insulin, 50 nM hydrocortisone, 5% FBS, 100 u/ml each of penicillin and streptomycin. […] […] 24 hours later, cells were gently washed and stained with trypan blue, the number of live cells from each well was counted.

As to heparin, in the data set with MMP-2, the “effect of heparin treatment on MMP-2 activity compared with the PPS effect” value is on record as “comparable”.

As to TNFα, the “increase in the amount of FITC-labeled albumin that passed through a monolayer of podocytes” value in the data set on podocytes stood at 34%. The “fold increase in mRNA expression of MCP-1, RANTES, CXCL-1, MIP-2, ICAM-1 and iNOS” value in data set [1] is given as 2-9 fold. `OO` [H2O2, hydrogen peroxide]: the apoptotic cell death entry with proximal tubular cells is reported as “dose dependent increase”.

As for tunicamycin, the apoptotic cell death entry in the data set on proximal tubular cells (proximal tubular cells exposed to inducers of oxidative stress or ER stress) is listed as “dose dependent increase”. The cell death is 38% in the data set on proximal tubular cells (0.6 μg/ml of tunicamycin) and 89% with proximal tubular cells (1.2 μg/ml of tunicamycin).
